Reference: PubChem BioAssay AID2060887 (Molecular Pharmacology Branch, DTP, NCI, 2025)

System: 782815-120-R-J1-PDC complex spheroid viability
Assay: Anticancer human tumor 782815-120-R-J1-PDC patient-derived colon adenocarcinoma cell line growth inhibition [RAS]
Conditions: for IC50: curve of first compound; for viability, T/C: stronger effect = lower value
Excerpt: RAS pathway inhibitors in Combinations in Complex Spheroids
A high-throughput screen of multi-cell type tumor spheroids was designed to identify active combinations of RAS pathway inhibitors and targeted small molecules. Complex spheroids include a stromal component modeled by human endothelial cells (HUVEC) and fibroblasts modeled by human mesenchymal stem cells (MSCs). The concentration ranges selected for each drug and investigational agent were based upon clinically achievable concentrations if the clinical Cmax of the agent was known.
Compounds. The drugs and investigational agents: abemaciclib (NSC768073), cobimetinib (NSC768068), divarasib (GDC6063, NSC841802), docetaxel (NSC628503), GDC-1971 (RLY-1971, NSC841576), gemcitabine (NSC613327), inavolisib (NSC800729), ipatasertib (NSC767898), KB-0742 (NSC834161), MRTX-1133 (NSC836407), osimertinib (NSC779217), RMC-4630 (NSC839698), RMC-6236 (NSC851965), RMC-6291 (NSC852671), Ro-3306 (NSC812927), sapanisertib (NSC764658), SN-38 (NSC673596), staurosporine (NSC755774), SY5609 (NSC837396), and tovorafenib (DAY101, NSC766906), were obtained from the National Cancer Institute (NCI) Developmental Therapeutics Program Chemical Repository. The FDA-approved anticancer drug set is available from the NCI Developmental Therapeutics Program. […] The stock solutions were prepared in dimethyl sulfoxide (DMSO, Sigma-Aldrich, St. Louis, MO, cat. D2650) at 800-fold the tested concentration and stored at -70 degrees C prior to their use. All drugs and investigational agents were tested over a range starting from a high concentration at or near the clinical Cmax and decreasing in half-log increments. If the clinical Cmax for an agent had not been determined, the highest concentration tested was 10 microM.
Cell Culture. All cells were maintained in an incubator at 37 degrees C and 5% CO2 with 95% humidity. The PDC lines were cultured according to standard operating procedures established by the NCI PDMR. All PDCs were thawed and cultured in Matrigel-coated flasks prepared with a working solution of 1X Ham's F-12 nutrient mix, without supplementation (Invitrogen, Waltham, MA, cat. 11765054), 100 U/mL penicillin-streptomycin (Invitrogen, cat. 15140122), and 2.5% Matrigel (Corning Inc., Corning, NY, cat. 354248) for the first three passages. The 362531-283-R-J2-PDC and 782815-120-R-J1-PDC lines were cultured in 6C/Colon 1B media, which includes advanced DMEM/F-12 (Thermo Fisher Scientific, cat. 12634028), 10 mM HEPES (Thermo Fisher Scientific, cat. 15630080), 1X GlutaMAX supplement (Thermo Fisher Scientific, cat. 35050061), 0.1 mg/mL primocin (InvivoGen, San Diego, CA, cat. ant-pm-2), 10% defined fetal bovine serum, heat inactivated (HyClone Laboratories Inc., Logan, UT, cat. SH30070.03HI), 50% L-WRN conditioned media (ATCC, cat. CRL-3276), 1.25 mM N-Acetyl-L-cysteine (Sigma-Aldrich, cat. A9165), 10 mM nicotinamide (Sigma-Aldrich, cat. N0636), 1X B-27 supplement (Thermo Fisher Scientific, cat. 17504044), 1X N-2 supplement (Thermo Fisher Scientific, cat. 17502048), 50 ng/mL human EGF (Thermo Fisher Scientific, cat. PHG0311), and 10 microM Y-27632 dihydrochloride (Tocris Bioscience, cat. 1254). The K12877-001-R-J1-PDC line was cultured in 6I media, which includes all 6C/Colon 1B media plus 10 ng/mL human FGF-10 (PeproTech, cat. 100-26), 1 ng/mL human FGF-2 (PeproTech, cat. 100-18B), 1 µM prostaglandin E2 (Tocris Bioscience, cat. 2296), […] hydrocortisone (Sigma-Aldrich, cat. H4001), and […] bovine insulin (Sigma-Aldrich, cat. I6634). The K86415-001-R-J1-PDC line was cultured in 6D media, which includes all 6C/Colon 1B media components minus the L-WRN conditioned media. The 485176-168-R4-J1-PDC was cultured in PANC media, which includes all 6C/Colon 1B media plus 100 ng/mL human FGF-10 (PeproTech, cat. 100-26), 500 nM SB-431542 (Selleckchem, cat. S1067), and 10 nM gastrin (Tocris Bioscience, cat. 3006). […]

[1] = second compound 0.0316 µM, first compound 0.00316 µM
[2] = second compound 0.0316 µM, first compound 0.01 µM
[3] = second compound 0.0316 µM, first compound 0.0316 µM
[4] = second compound 0.0316 µM, first compound 0.1 µM
[5] = second compound 0.0316 µM, first compound 0.316 µM
[6] = second compound 0.0316 µM, first compound 1 µM
[7] = second compound 0.1 µM, first compound 0.00316 µM
[8] = second compound 0.1 µM, first compound 0.01 µM
[9] = second compound 0.1 µM, first compound 0.0316 µM
[10] = second compound 0.1 µM, first compound 0.1 µM
[11] = second compound 0.1 µM, first compound 0.316 µM
[12] = second compound 0.1 µM, first compound 1 µM
[13] = second compound 0.316 µM, first compound 0.00316 µM
[14] = second compound 0.316 µM, first compound 0.01 µM
[15] = second compound 0.316 µM, first compound 0.0316 µM
[16] = second compound 0.316 µM, first compound 0.1 µM
[17] = second compound 0.316 µM, first compound 0.316 µM
[18] = second compound 0.316 µM, first compound 1 µM
[19] = second compound 1 µM, first compound 0.00316 µM
[20] = second compound 1 µM, first compound 0.01 µM
[21] = second compound 1 µM, first compound 0.0316 µM
[22] = second compound 1 µM, first compound 0.1 µM
[23] = second compound 1 µM, first compound 0.316 µM
[24] = second compound 1 µM, first compound 1 µM
[25] = second compound 3.16 µM, first compound 0.00316 µM
[26] = second compound 3.16 µM, first compound 0.01 µM
[27] = second compound 3.16 µM, first compound 0.0316 µM
[28] = second compound 3.16 µM, first compound 0.1 µM
[29] = second compound 3.16 µM, first compound 0.316 µM
[30] = second compound 3.16 µM, first compound 1 µM
[31] = second compound 10 µM, first compound 0.00316 µM
[32] = second compound 10 µM, first compound 0.01 µM
[33] = second compound 10 µM, first compound 0.0316 µM
[34] = second compound 10 µM, first compound 0.1 µM
[35] = second compound 10 µM, first compound 0.316 µM
[36] = second compound 10 µM, first compound 1 µM
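Note: spheroids exposed to compounds for 7 days before reading.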
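Throughout, for viability, T/C: 100% = DMSO vehicle control viability.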

C=CC(=O)Nc1cc(Nc2nccc(-c3cn(C)c4ccccc34)n2)c(OC)cc1N(C)CCN(C)C + C#Cc1c(F)ccc2cc(O)cc(-c3ncc4c(N5CC6CCC(C5)N6)nc(OCC56CCCN5CC(F)C6)nc4c3F)c12
IC50 (second compound 0.0316 µM): > 1 µM
IC50 (second compound 0.1 µM): > 1 µM
IC50 (second compound 0.316 µM): > 1 µM
IC50 (second compound 1 µM): > 1 µM
IC50 (second compound 3.16 µM): > 1 µM
IC50 (second compound 10 µM): > 1 µM
viability, T/C [1]: 99.3%
viability, T/C [2]: 93.8%
viability, T/C [3]: 101%
viability, T/C [4]: 97.2%
viability, T/C [5]: 98.9%
viability, T/C [6]: 93.6%
viability, T/C [7]: 103%
viability, T/C [8]: 97.2%
viability, T/C [9]: 97.5%
viability, T/C [10]: 93.6%
viability, T/C [11]: 101%
viability, T/C [12]: 89.5%
viability, T/C [13]: 98.2%
viability, T/C [14]: 94.3%
viability, T/C [15]: 105%
viability, T/C [16]: 89%
viability, T/C [17]: 95%
viability, T/C [18]: 101%
viability, T/C [19]: 95.5%
viability, T/C [20]: 96%
viability, T/C [21]: 101%
viability, T/C [22]: 92.4%
viability, T/C [23]: 100%
viability, T/C [24]: 101%
viability, T/C [25]: 99.9%
viability, T/C [26]: 101%
viability, T/C [27]: 98.4%
viability, T/C [28]: 94.4%
viability, T/C [29]: 97%
viability, T/C [30]: 95.8%
viability, T/C [31]: 100%
viability, T/C [32]: 91.7%
viability, T/C [33]: 110%
viability, T/C [34]: 101%
viability, T/C [35]: 94.4%
viability, T/C [36]: 91.7%

O=C(c1ccc(F)c(F)c1Nc1ccc(I)cc1F)N1CC(O)([C@@H]2CCCCN2)C1 + C#Cc1c(F)ccc2cc(O)cc(-c3ncc4c(N5CC6CCC(C5)N6)nc(OCC56CCCN5CC(F)C6)nc4c3F)c12
IC50 (second compound 0.0316 µM): 0.0847 µM
IC50 (second compound 0.1 µM): 0.057 µM
IC50 (second compound 0.316 µM): 0.0659 µM
IC50 (second compound 1 µM): 0.079 µM
IC50 (second compound 3.16 µM): 0.0543 µM
IC50 (second compound 10 µM): 0.0583 µM
viability, T/C [1]: 95.6%
viability, T/C [2]: 95%
viability, T/C [3]: 66%
viability, T/C [4]: 47.1%
viability, T/C [5]: 23.6%
viability, T/C [6]: 3.7%
viability, T/C [7]: 97.4%
viability, T/C [8]: 81%
viability, T/C [9]: 61.5%
viability, T/C [10]: 38.6%
viability, T/C [11]: 20.8%
viability, T/C [12]: 4.18%
viability, T/C [13]: 98.7%
viability, T/C [14]: 88.4%
viability, T/C [15]: 63.1%
viability, T/C [16]: 42.2%
viability, T/C [17]: 19.1%
viability, T/C [18]: 2.93%
viability, T/C [19]: 97.8%
viability, T/C [20]: 85.4%
viability, T/C [21]: 69.7%
viability, T/C [22]: 46.5%
viability, T/C [23]: 18.1%
viability, T/C [24]: 1.87%
viability, T/C [25]: 99.4%
viability, T/C [26]: 85.9%
viability, T/C [27]: 59.1%
viability, T/C [28]: 40.7%
viability, T/C [29]: 10.4%
viability, T/C [30]: 0.92%
viability, T/C [31]: 98.4%
viability, T/C [32]: 88.3%
viability, T/C [33]: 61.4%
viability, T/C [34]: 41.2%
viability, T/C [35]: 10.1%
viability, T/C [36]: 0.5%
